target: T1, human recombinant GPR65 (Homo sapiens, UniProt Q8IYL9); assay: Human GPR65 cAMP HTRF antagonist assay; type: cell-based; conditions: not given
T1 construct: host or cells: 1321N1 human astrocytoma cells (1321N1-hrGPR65)
Procedure, shortened: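 1321N1 astrocytoma cells stably expressing GPR65 were preincubated with compound for 30 min at room temperature in KRH pH 7.6 with 1 mM IBMX and 200 μM EDTA. They were then stimulated at assay pH 7.2 for 30 min, with controls at pH 7.9. cAMP was read by HTRF (665/620 nm), normalised to controls and fitted by 4-parameter logistic to give IC50.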

T1 sequence (Q8IYL9 whole entry): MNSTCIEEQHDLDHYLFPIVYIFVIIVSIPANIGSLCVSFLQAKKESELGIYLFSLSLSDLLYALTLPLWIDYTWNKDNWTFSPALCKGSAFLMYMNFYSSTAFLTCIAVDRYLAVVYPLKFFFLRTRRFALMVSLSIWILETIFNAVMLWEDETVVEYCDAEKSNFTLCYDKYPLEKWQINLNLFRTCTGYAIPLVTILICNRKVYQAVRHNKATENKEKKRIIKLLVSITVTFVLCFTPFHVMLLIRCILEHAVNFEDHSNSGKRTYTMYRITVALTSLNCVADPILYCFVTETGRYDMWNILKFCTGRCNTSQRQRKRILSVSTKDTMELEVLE

Structure (SMILES) | IC50 [nM]
O=C(Nc1cc(Cl)c(Cl)cc1F)N1[C@H]2CC[C@@H]1c1c(F)cncc1C2 [Compound 190, (5R,8S)-N-(4,5-Dichloro-2-fluorophenyl)-4-fluoro-6,7,8,9-tetrahydro-5H-5,8-epiminocyclohepta[c]pyridine-10-carboxamide] | < 500
O=C(Nc1ccc(Cl)c(Cl)c1)N1C2CCC1c1cnc(=O)[nH]c1C2 (racemic) [Compound 31, (±)-N-(3,4-Dichlorophenyl)-2-oxo-2,5,6,7,8,9-hexahydro-1H-5,8-epiminocyclohepta[d]pyrimidine-10-carboxamide] | < 500
N#Cc1cc(NC(=O)N2[C@H]3CC[C@@H]2c2ccnc(F)c2C3)ccc1Cl [Compound 199, (5R,8S)-N-(4-Chloro-3-cyanophenyl)-1-fluoro-6,7,8,9-tetrahydro-5H-5,8-epiminocyclohepta[c]pyridine-10-carboxamide] | < 500
O=C(Nc1cc(Cl)c(Cl)c(Cl)c1)N1C2CCC1c1ccnc(F)c1C2 (racemic) [Compound 166, (±)-1-Fluoro-N-(3,4,5-trichlorophenyl)-6,7,8,9-tetrahydro-5H-5,8-epiminocyclohepta[c]pyridine-10-carboxamide] | < 500
O=C(Nc1ccc(Oc2ccccc2)cc1)N1[C@H]2CC[C@@H]1c1ccnc(F)c1C2 [Compound 185, (5R,8S)-1-Fluoro-N-(4-phenoxyphenyl)-6,7,8,9-tetrahydro-5H-5,8-epiminocyclohepta[c]pyridine-10-carboxamide] | < 500
O=C(Nc1cc(C(F)(F)F)ccc1F)N1[C@H]2CC[C@@H]1c1ccnc(F)c1C2 [Compound 119, (5R,8S)-1-Fluoro-N-(2-fluoro-5-(trifluoromethyl)phenyl)-6,7,8,9-tetrahydro-5H-5,8-epiminocyclohepta[c]pyridine-10-carboxamide] | < 500
O=C(Nc1ccc(Cl)c(Cl)c1)N1[C@H]2CC[C@@H]1c1c[nH]c(=O)nc1C2 [Compound 106, (5R,8S)-N-(3,4-Dichlorophenyl)-2-oxo-3,5,6,7,8,9-hexahydro-2H-5,8-epiminocyclohepta[d]pyrimidine-10-carboxamide] | < 500
O=C(Nc1ccc(Br)cc1)N1C2CCC1c1ccnc(F)c1C2 (racemic) [Compound 168, (±)-N-(4-Bromophenyl)-1-fluoro-6,7,8,9-tetrahydro-5H-5,8-epiminocyclohepta[c]pyridine-10-carboxamide] | < 500
O=C(Nc1ccc(C(F)(F)F)c(Cl)c1)N1C2CCC1c1cnc(=O)[nH]c1C2 (racemic) [Compound 32, (±)-N-(3-Chloro-4-(trifluoromethyl)phenyl)-2-oxo-2,5,6,7,8,9-hexahydro-1H-5,8-epiminocyclohepta[d]pyrimidine-10-carboxamide] | < 500
O=C(Nc1ccc(C(F)(F)F)c(Cl)c1)N1C2CCC1c1ncncc1C2 (racemic) [Compound 18, (±)-N-(3-Chloro-4-(trifluoromethyl)phenyl)-6,7,8,9-tetrahydro-5H-6,9-epiminocyclohepta[d]pyrimidine-10-carboxamide] | < 500
O=C(Nc1ccc(F)c(Br)c1)N1C2CCC1c1ccnc(F)c1C2 (racemic) [Compound 172, (±)-N-(3-Bromo-4-fluorophenyl)-1-fluoro-6,7,8,9-tetrahydro-5H-5,8-epiminocyclohepta[c]pyridine-10-carboxamide] | < 500
Cc1cc(Cl)c(Cl)cc1NC(=O)N1[C@H]2CC[C@@H]1c1ccnc(F)c1C2 [Compound 117, (5R,8S)-N-(4,5-Dichloro-2-methylphenyl)-1-fluoro-6,7,8,9-tetrahydro-5H-5,8-epiminocyclohepta[c]pyridine-10-carboxamide] | < 500
O=C(Nc1ccc(C(F)(F)F)c(Cl)c1)N1[C@H]2CC[C@@H]1c1ccnc(F)c1C2 [Compound 85, (5R,8S)-N-(3-Chloro-4-(trifluoromethyl)phenyl)-1-fluoro-6,7,8,9-tetrahydro-5H-5,8-epiminocyclohepta[c]pyridine-10-carboxamide] | < 500

same assay, conditions: 1321N1-hrGPR65 cells, assay pH 7.2, cAMP HTRF; read-out: hGPR65 IC50 (activity class)

Structure (SMILES) | IC50 [nM]
O=C(Nc1ccc(Cl)c(C(F)(F)F)c1)N1C2CCC1c1ccccc1C2 (racemic) [Compound 55, (±)-N-(4-Chloro-3-(trifluoromethyl)phenyl)-6,7,8,9-tetrahydro-5H-5,8-epiminobenzo[7]annulene-10-carboxamide] | 500 to 5000
O=C(Nc1ccc(Cl)c(Cl)c1)N1C2CCC1c1cnc(Cl)cc1C2 (racemic) [Compound 100, (±)-3-Chloro-N-(3,4-dichlorophenyl)-6,7,8,9-tetrahydro-5H-6,9-epiminocyclohepta[c]pyridine-10-carboxamide] | 500 to 5000
O=C(Nc1ccc(C(F)(F)F)c(Cl)c1)N1C2CCC1c1c[nH]c(=O)nc1C2=NO (racemic) [Compound 47, (±)-N-(3-Chloro-4-(trifluoromethyl)phenyl)-9-(hydroxyimino)-2-oxo-3,5,6,7,8,9-hexahydro-2H-5,8-epiminocyclohepta[d]pyrimidine-10-carboxamide] | 500 to 5000
O=C(Nc1ccc(Cl)c(Cl)c1)N1C2CCC1c1cc(F)ncc1C2 (racemic) [Compound 69, (±)-N-(3,4-Dichlorophenyl)-3-fluoro-6,7,8,9-tetrahydro-5H-5,8-epiminocyclohepta[c]pyridine-10-carboxamide] | 500 to 5000
Nc1nccc2c1C1CCC(C2)N1C(=O)Nc1ccc(Cl)c(Cl)c1 (racemic) [Compound 61, (±)-1-Amino-N-(3,4-dichlorophenyl)-6,7,8,9-tetrahydro-5H-6,9-epiminocyclohepta[c]pyridine-10-carboxamide] | 500 to 5000
COc1ccc(NC(=O)N2C3CCC2c2cncnc2C3)cc1Cl (racemic) [Compound 8, (±)-N-(3-Chloro-4-methoxyphenyl)-6,7,8,9-tetrahydro-5H-5,8-epiminocyclohepta[d]pyrimidine-10-carboxamide] | > 5000
O=C(Nc1ccc(C(F)(F)F)c(Cl)c1)N1[C@@H]2CC[C@H]1c1c[nH]c(=O)nc1C2 [Compound 44, (5S,8R)-N-(3-Chloro-4-(trifluoromethyl)phenyl)-2-oxo-3,5,6,7,8,9-hexahydro-2H-5,8-epiminocyclohepta[d]pyrimidine-10-carboxamide] | > 5000
O=C(Nc1cccc(Cl)c1)N1C2CCC1c1cncnc1C2 (racemic) [Compound 50, (±)-N-(3-Chlorophenyl)-6,7,8,9-tetrahydro-5H-5,8-epiminocyclohepta[d]pyrimidine-10-carboxamide] | > 5000
O=C(Nc1ccc(C(F)(F)F)c(Cl)c1)N1[C@@H]2CC[C@H]1c1cncnc1C2 [Compound 39, (5S,8R)-N-(3-Chloro-4-(trifluoromethyl)phenyl)-6,7,8,9-tetrahydro-5H-5,8-epiminocyclohepta[d]pyrimidine-10-carboxamide] | > 5000
O=C(Nc1cc(Cl)ccc1F)N1C2CCC1c1cncnc1C2 (racemic) [Compound 51, (±)-N-(5-Chloro-2-fluorophenyl)-6,7,8,9-tetrahydro-5H-5,8-epiminocyclohepta[d]pyrimidine-10-carboxamide] | 500 to 5000
O=C(Nc1ccc(Cl)c(Cl)c1)N1C2CCC1c1cccnc1C2 (racemic) [Compound 87, (±)-N-(3,4-Dichlorophenyl)-6,7,8,9-tetrahydro-5H-5,8-epiminocyclohepta[b]pyridine-10-carboxamide] | > 5000
